Test results reported in patent US7998460B2, “Prevention of deficits in neurogenesis with anti-inflammatory agents” (The Board of Trustees of the Leland Stanford Junior …, priority 2003, dated 2011).
“Also recorded” adds a separate entry of the source.

Tests used:
hippocampal neurogenesis [1] = test: Oral NSAID course and LPS challenge, hippocampal neurogenesis at day 28 in mice; assay type: in vivo, mouse; details: oral NSAID course, LPS 5 mg/kg
Method: Mice were started on a 16 day preventative course of oral NSAID and then challenged with a single IP injection of LPS (5 mg/kg) and then BrdU (50 mg/kg) over 6 days beginning 2 h after LPS. The mice were either perfused 28 days after LPS injection, or trained and tested in the Morris water maze.
NSAID treatment. […]

hippocampal neurogenesis [2] = test: LPS-induced transient illness, microglia and hippocampal neurogenesis in mice; assay type: in vivo, mouse
Method: To investigate whether an LPS challenge produces more chronic effects on neurogenesis, adult female C57BI/6 mice were injected intraperitoneally (i.p.) with 0, 5, 7.5 and 10 mg/kg of LPS and subcutaneously with sterile saline to prevent dehydration. Mice were then injected once daily over the next 6 days with the cell synthesis marker bromodeoxyuridine (BrdU; 50 mg/kg) to label dividing progenitor cells. Histology was performed on sections from mice that were perfused on Day 7 or Day 28. The number of BrdU-labeled (new) or IBA-1-labeled (monocyte/microglial) cells was estimated through hippocampal sets stereologically using enzyme substrate immunohistochemistry and light microscopy and BrdU-labeled cell phenotypes and IBA-1-labeled activation was determined using immunofluorescence and confocal microscopy.
Subjects. All mice used as subjects in this study were treated in accordance with the policies set forth by the Stanford Animal Care and Use Committee and NIH regarding the ethical use of animals for experimentation. CB57BI/6 mice (7 wks old upon arrival from -Taconic) were housed in groups of 4-5 in autoclaved shoebox cages under standard conditions and were given free access to autoclaved Prolab Mouse 3000 chow (PMI Nutrition International, St. Louis, Mo.) and autoclaved tap water. One week after arrival, vehicle- and NSAID-treated mice were given an intraperitoneal (i.p.) injection of sterile saline or lipopolysaccharide (LPS; 5 mg/kg at a concentration of 1 mg/ml isotonic saline; Sigma Aldrich, St. Louis, Mo.) to induce transient illness (Day 0) and daily subcutaneous (s.c.) isotonic saline (0.5 ml) injections (Days 0-3) to prevent illness-induced dehydration. The cell synthesis marker bromodeoxyuridine (BrdU; Sigma Aldrich, St. Louis, Mo.) was injected i.p. (50 mg/kg at a concentration of 10 mg/ml in freshly prepared isotonic saline) once per day for 6 days to label dividing cells, beginning Day 0 (2 h after LPS). The mice were anesthetized with ketamine/xylazine and killed at Days 7 or 28 (to assess hippocampal neurogenesis during illness and just before behavioral testing, respectively) or Day 80 (to measure hippocampal neurogenesis following behavioural testing) by perfusion with 4% paraformaldehyde. Brains were post-fixed overnight in perfusate, microtome sectioned at 40 μm through the hippocampus and stored in tissue cryoprotectant solution at −20° C. until processed immunohistochemically.
Histology and Immunohistochemistry. Free floating sections were immunostained as described previously using the following primary antibodies and working concentrations: rat anti-bromodeoxyuridine (1:500; Accurate, Westbury, N.J.) goat anti-doublecortin (1:500; Santa Cruz, Calif.), rabbit anti-[…] (1:2000; WAKO, Los Angeles, Calif.), rabbit anti-FA-11 (CD68; 1:200; Serotec, Raleigh, N.C.), guinea pig anti-GFAP (1:750; Harlan, Indianapolis, Ind.), rabbit anti-NG2 (1:2000; a gift from W. Stallcup), mouse anti-NeuN (1:500; Chemicon; Temeculah, Calif.). Tissue was incubated in all primary antibodies ovemight (and in anti-BrdU for 48 h) at 4° C. Phenotyping sets were incubated in minimally cross-reactive secondary IGg conjugated fluorophores (1:500; Jackson Immunoresearch, West Grove, Pa.) overnight at 4° C. and coverslipped under PVA-DABCO.
Cell Counting and Unbiased Stereology. BrdU-labeled cells were phenotyped and total BrdU-labeled and […] cell numbers stereologically estimated if they were located in the hippocampal granule cell layer proper and subgranular zone (the neurogenic zone that includes a 50 μm border between the hilus and granule cell layer). BrdU-labeled cells were phenotyped on immunofluroescent stained sections that were anatomically matched using a Zeiss 510 Meta confocal microscope using a multi-channel configuration with a 40× objective and electronic zoom of 2.3. Appropriate gain and black level was set using control sections stained with secondary antibodies alone. […]

[3] = dentate gyri, 4 weeks after LPS

COc1ccc2c(c1)c(CC(=O)O)c(C)n2C(=O)c1ccc(Cl)cc1 [indomethacin]
effect on LPS-induced deficit in fraction of newborn cells adopting a neuronal fate (DCX and/or NeuN) by Day 28 (hippocampal neurogenesis [1]): attenuated, but did not completely reverse this deficit; also recorded: attenuated this deficit | effect on LPS-induced reduction of transition state and mature neurons (hippocampal neurogenesis [1]; Day 28): partially reversed the effects of LPS

lipopolysaccharide [LPS]
reduction in the net number of new neurons (hippocampal neurogenesis [2]; 4 weeks after LPS challenge): 45-55% | reduction of BrdU positive cells colabeled with NeuN (hippocampal neurogenesis [2]; 4 weeks after LPS challenge): ≈ 57% | reduction of BrdU-positive cells colabeled with DCX/NeuN (hippocampal neurogenesis [2]; 4 weeks after LPS challenge): ≈ 44% | total number of BrdU positive cells vs vehicle (hippocampal neurogenesis [2]; 6 and 28 d after injection): similar | activation (FA-11/CD68) intensity on IBA-1 positive cells vs vehicle (hippocampal neurogenesis [2]; [3]): 1.25 fold | total IBA-1 positive cell number vs vehicle (hippocampal neurogenesis [2]; [3]): similar | reduction of BrdU positive cells colabeled with DCX/NeuN (hippocampal neurogenesis [2]; week following LPS challenge, independent of LPS dose): ≈ 41%
